The test system of data set [1] is A2/Taiwan/1/64 (H2N2), M2 WT. In words: microbe, parasite or virus in culture. Type of data set: cell-based. Conditions: read-out: EC50 A2/Taiwan/1/64 (H2N2).
Data set [2] relates to A/Victoria/3/75 (H3N2), M2 WT. In words: microbe, parasite or virus in culture. Conditions: read-out: EC50 A/Victoria/3/75 (H3N2). It counts as cell-based.
Data set [3] concerns MDCK cells.

Eleven compounds from patent US9840465B2 (priority 2013, dated 2017) can be followed below.

Structures can show the parent of a compound that is named as a salt. Where two headings read alike, the source gives them in different places.

One may read the melting point as the temperature of the solid-liquid transition. As for `CCC1CCC2(N1)C1CC3CC(C1)CC2C3` (stereo not drawn) (as salt: fumarate) [Compound 347, 5-ethylspiro[pyrrolidine-2,2′-tricyclo[3.3.1.1^3,7]decane]], the melting point is 191 to 193 °C (dec.).

Turning to `CC(C)(N)C12CC3CC(CC(C3)C1)C2` [Compound 259, 2-(adamantan-1-yl)propan-2-amine], the EC50 worked out at 1.1 µM in data set [1] (Influenza A virus, H2N2, MDCK) and 3.4 µM in data set [2] (Influenza A virus, H3N2, MDCK). `NC1(Cc2ccccc2)C2CC3CC(C2)CC1C3` (stereo not drawn) [Compound 20, (1r,3r,5r,7r)-2-benzyladamantan-2-amine]: the EC50 in data set [1] turned out to be 0.2 µM; in data set [2], 18 µM. As for `CCCCCCC1(N)C2CC3CC(C2)CC1C3` (stereo not drawn) (as salt: fumarate) [Compound 101, 2-n-hexyl-tricyclo[3.3.1.1^3,7]decan-2-amine], the melting point was 225 °C. As to `CCCCCCC1(N)C2CC3CC(C2)CC1C3` (stereo not drawn) [Compound 101, 2-n-hexyl-tricyclo[3.3.1.1^3,7]decan-2-amine], the EC50 in data set [1] (Influenza A virus, H2N2, MDCK) came out at 1.5 µM; in data set [2] (Influenza A virus, H3N2, MDCK), 1.1 µM. Besides, in data set [3], the “microscopic evidence of cytotoxicity to MDCK cells” value is given as “No microscopic evidence of cytotoxicity”.

For the compound `CCCCC1(N)C2CC3CC(C2)CC1C3` (stereo not drawn) [Compound 17, (1r,3r,5r,7r)-2-butyladamantan-2-amine], the EC50 is 1.5 µM in data set [1] and 4 µM in data set [2]. In the same order, the values of `CC(C)CC1(N)C2CC3CC(C2)CC1C3` (stereo not drawn) [Compound 18, (1r,3r,5r,7r)-2-isobutyladamantan-2-amine] are 0.4 µM and 13 µM. In the case of `CCCC1(N)C2CC3CC(C2)CC1C3` (stereo not drawn) [Compound 7], the EC50 is less than 0.24 µM in data set [1] (Influenza A virus, H2N2, MDCK) and 23 µM in data set [2] (Influenza A virus, H3N2, MDCK).

With `NC12CC3CC(CC(C3)C1)C2` [Amantadine (1), Amantadine, reference compound], the EC50 is 0.34 µM in data set [1] (Influenza A virus, H2N2, MDCK) and 2.8 µM in data set [2] (Influenza A virus, H3N2, MDCK). As to `NC1(c2ccccc2)C2CC3CC(C2)CC1C3` (stereo not drawn) [Compound 19, (1r,3r,5r,7r)-2-phenyladamantan-2-amine], the EC50 in data set [1] came out at 0.2 µM; in data set [2], 8 µM. In the case of `CC(N)C12CC3CC(CC(C3)C1)C2` (stereo not drawn) [Rimantadine (2), Rimantadine, reference compound], the EC50 in data set [1] (Influenza A virus, H2N2, MDCK) came out at 1.6 µM; in data set [2] (Influenza A virus, H3N2, MDCK), 0.53 µM.
